Target: METTL3/METTL14 (Homo sapiens, UniProt Q86U44)
Test: Inhibition of full-length His-tagged METTL3 (unknown origin) coexpressed with full-length FLAG-tagged METTL14 (unknown origin) expressed in baculovirus expression system using 5'P-uacacucgaucuggacuaaagcugcuc-3' RNA as substrate pre-incubated for 10 mins and followed by substrate addition and measured after 60 mins by methyltransferase assay

Sequence of METTL3/METTL14 (Q86U44 whole entry): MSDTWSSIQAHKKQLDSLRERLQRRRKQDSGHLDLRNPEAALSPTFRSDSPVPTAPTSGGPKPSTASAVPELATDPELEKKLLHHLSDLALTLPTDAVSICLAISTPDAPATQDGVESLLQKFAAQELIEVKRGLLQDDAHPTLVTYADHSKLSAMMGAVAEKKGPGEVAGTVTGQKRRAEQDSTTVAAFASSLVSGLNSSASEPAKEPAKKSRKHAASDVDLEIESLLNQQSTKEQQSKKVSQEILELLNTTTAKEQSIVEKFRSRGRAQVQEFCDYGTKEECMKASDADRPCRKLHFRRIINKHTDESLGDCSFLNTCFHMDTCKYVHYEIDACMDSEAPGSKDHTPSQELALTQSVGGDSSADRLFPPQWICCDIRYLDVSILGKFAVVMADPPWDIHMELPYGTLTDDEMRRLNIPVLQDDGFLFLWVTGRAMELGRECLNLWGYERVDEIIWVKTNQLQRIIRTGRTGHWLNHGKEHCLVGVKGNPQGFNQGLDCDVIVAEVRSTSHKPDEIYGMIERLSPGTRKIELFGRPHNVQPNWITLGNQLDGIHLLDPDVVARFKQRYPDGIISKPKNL
Sequence of METTL3/METTL14 (Q9HCE5 whole entry, further chain): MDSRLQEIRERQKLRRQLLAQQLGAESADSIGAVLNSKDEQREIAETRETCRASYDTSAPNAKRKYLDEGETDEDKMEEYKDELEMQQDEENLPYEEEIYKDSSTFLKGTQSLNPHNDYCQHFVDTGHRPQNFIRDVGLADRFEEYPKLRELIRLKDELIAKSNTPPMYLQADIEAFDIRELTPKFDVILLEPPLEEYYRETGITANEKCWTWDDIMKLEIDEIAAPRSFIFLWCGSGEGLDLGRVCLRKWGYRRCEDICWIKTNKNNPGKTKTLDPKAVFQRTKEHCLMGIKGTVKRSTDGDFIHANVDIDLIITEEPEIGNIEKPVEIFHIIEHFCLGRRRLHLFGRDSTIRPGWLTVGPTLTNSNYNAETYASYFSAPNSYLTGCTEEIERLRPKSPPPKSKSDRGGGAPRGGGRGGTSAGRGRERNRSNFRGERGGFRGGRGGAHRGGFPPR

| Structure (SMILES) | IC50 |
| --- | --- |
| O=C(NCc1ccc2cc(CCN3CC4(CCC4)C3)[nH]c2c1)c1cc(=O)n2ccccc2n1 | 0.118 µM |
| O=C(NCc1ccc2cc(CN3CC(C4CC4)C3)[nH]c2c1)c1cc(=O)n2ccccc2n1 | 0.00924 µM |

— ChEMBL document CHEMBL5050858, “Polyheterocyclic compounds as mettl3 inhibitors” (2021)
